In US9029386B2, “Pyridine derivatives useful as kinase inhibitors” (YM Biosciences Australia Pty Ltd, priority 2006, dated 2015):

Target: T1, FLT-3 tyrosine kinase (Homo sapiens, UniProt P36888)
T1 construct: purchased Upstate Cell Signalling Solutions, CA, USA 14-500
T1 sequence (P36888 27-993): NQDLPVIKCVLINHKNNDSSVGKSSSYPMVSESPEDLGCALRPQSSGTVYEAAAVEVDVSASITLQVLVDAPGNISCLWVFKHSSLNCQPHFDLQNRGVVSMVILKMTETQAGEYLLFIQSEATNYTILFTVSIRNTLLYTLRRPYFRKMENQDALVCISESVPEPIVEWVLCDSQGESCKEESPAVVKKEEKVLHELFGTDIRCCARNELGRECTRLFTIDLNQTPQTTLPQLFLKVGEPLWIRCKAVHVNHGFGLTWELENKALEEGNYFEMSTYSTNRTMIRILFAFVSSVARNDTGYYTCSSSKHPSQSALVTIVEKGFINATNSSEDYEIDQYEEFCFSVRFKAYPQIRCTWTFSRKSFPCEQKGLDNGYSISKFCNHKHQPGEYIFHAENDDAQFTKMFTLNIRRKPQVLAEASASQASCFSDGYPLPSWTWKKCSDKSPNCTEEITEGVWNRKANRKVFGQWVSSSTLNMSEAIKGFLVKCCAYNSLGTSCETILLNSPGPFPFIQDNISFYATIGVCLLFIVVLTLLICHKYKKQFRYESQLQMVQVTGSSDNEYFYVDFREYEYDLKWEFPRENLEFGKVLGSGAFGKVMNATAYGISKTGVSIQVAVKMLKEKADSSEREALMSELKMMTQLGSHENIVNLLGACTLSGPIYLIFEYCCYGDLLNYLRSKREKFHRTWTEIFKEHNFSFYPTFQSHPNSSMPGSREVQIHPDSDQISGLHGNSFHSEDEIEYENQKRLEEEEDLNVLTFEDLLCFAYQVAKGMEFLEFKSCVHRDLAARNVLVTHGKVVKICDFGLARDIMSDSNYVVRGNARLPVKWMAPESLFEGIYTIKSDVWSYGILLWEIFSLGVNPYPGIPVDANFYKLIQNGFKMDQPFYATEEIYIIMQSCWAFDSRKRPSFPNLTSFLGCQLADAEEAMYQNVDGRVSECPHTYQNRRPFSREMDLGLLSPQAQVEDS
Test: Alphascreen protein tyrosine kinase assay, FLT-3
Assay type: biochemical
Conditions: read-out: Flt3

IC50: > 10 µM
Structure (SMILES): Cc1cccc(C(=O)Nc2cccc([C@H](C)Nc3cncc(-c4ccc(S(N)(=O)=O)cc4)n3)c2)c1 [Compound 77]
